In ChEMBL document CHEMBL1137501, “Identification and synthesis of major metabolites of Vasopressin V2-receptor agonist WAY-151932, and antagonist, Lixivaptan” (Bioorg Med Chem Lett, 2007):

Legend:
Rattus norvegicus [1] = experiment: Effect on urine volume in rat 10 mg/kg, po relative to control; assay type: functional
Oxytocin receptor = target: T1, Oxytocin receptor (Homo sapiens, UniProt P30559); experiment: Displacement of [3H]oxytocin from human oxytocin receptor expressed in CHO cells; assay type: cell-based
T1 sequence (P30559 whole entry): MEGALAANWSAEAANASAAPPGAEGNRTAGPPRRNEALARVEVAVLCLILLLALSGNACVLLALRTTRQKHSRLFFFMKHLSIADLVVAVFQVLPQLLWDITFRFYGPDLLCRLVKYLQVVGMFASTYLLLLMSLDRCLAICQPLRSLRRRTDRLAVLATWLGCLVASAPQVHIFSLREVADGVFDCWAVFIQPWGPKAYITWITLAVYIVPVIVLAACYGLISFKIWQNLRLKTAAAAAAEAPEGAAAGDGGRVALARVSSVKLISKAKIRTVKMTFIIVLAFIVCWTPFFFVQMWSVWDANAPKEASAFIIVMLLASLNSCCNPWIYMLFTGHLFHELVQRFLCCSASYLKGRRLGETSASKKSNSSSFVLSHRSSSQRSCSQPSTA

Vasopressin V1a receptor [2] = target: T2, Vasopressin V1a receptor (Homo sapiens, UniProt P37288); experiment: Displacement of [3H]manning ligand from human vasopressin V1a receptor expressed in CHO cells at 1000 nM; assay type: cell-based
Target sequence in this assay (P37288 whole entry, looked up): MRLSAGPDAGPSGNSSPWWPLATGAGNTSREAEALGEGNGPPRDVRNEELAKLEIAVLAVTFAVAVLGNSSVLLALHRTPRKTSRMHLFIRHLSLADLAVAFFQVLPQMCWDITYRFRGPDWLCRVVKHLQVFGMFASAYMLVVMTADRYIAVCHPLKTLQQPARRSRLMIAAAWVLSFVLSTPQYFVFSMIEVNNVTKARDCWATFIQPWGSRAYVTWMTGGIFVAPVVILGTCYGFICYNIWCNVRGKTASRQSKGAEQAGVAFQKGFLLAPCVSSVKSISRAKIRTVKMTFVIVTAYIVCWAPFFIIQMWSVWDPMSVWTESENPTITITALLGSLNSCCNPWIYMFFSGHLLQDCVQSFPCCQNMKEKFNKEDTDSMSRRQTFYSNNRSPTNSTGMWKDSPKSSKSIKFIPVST

[3] = target: T3, Oxytocin receptor (Homo sapiens) (UniProt P30559); experiment: Displacement of [3H]oxytocin from human oxytocin receptor expressed in CHO cells at 1000 nM; assay type: cell-based
T3 sequence (whole entry): T1 sequence (P30559 whole entry)

Vasopressin V2 receptor [4] = target: T4, Vasopressin V2 receptor (Homo sapiens, UniProt P30518); experiment: Displacement of [3H]AVP from human vasopressin V2 receptor expressed in CHO cells at 1000 nM; assay type: cell-based
T4 sequence (P30518 whole entry): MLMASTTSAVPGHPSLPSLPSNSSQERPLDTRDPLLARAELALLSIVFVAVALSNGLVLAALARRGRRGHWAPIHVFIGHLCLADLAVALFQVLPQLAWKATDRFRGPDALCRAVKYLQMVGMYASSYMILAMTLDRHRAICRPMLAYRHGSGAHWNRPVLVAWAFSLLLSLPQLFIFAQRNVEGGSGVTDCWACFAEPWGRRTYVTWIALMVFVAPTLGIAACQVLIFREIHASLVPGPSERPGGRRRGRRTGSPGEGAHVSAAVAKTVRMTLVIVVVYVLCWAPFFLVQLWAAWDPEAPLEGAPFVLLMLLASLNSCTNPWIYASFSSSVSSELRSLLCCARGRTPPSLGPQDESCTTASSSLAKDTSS

Vasopressin V2 receptor [5] = target: T4, Vasopressin V2 receptor; experiment: Displacement of [3H]AVP from human vasopressin V2 receptor expressed in CHO cells; assay type: cell-based
Vasopressin V1a receptor [6] = target: T2, Vasopressin V1a receptor; experiment: Displacement of [3H]manning ligand from human vasopressin V1a receptor expressed in CHO cells; assay type: cell-based
Target sequence in this assay (P37288 whole entry): as the sequence (P37288 whole entry, looked up) above

Rattus norvegicus [7] = experiment: Effect on urine volume in rat 10 mg/kg, iv relative to control; assay type: functional
Vasopressin V2 receptor [8] = target: T4, Vasopressin V2 receptor; experiment: Displacement of [3H]AVP from human vasopressin V2 receptor expressed in mouse LV2 cells; assay type: cell-based
Vasopressin V1a receptor [9] = target: T2, Vasopressin V1a receptor; experiment: Displacement of [3H]manning ligand from human vasopressin V1a receptor expressed in CHO cells at 100 nM; assay type: cell-based
Target sequence in this assay (P37288 whole entry, looked up): as above

Vasopressin V2 receptor [10] = target: T4, Vasopressin V2 receptor; experiment: Displacement of [3H]AVP from human vasopressin V2 receptor expressed in CHO cells at 100 nM; assay type: cell-based
[11] = target: T3, Oxytocin receptor (Homo sapiens); experiment: Displacement of [3H]oxytocin from human oxytocin receptor expressed in CHO cells at 100 nM; assay type: cell-based

Compound | Activity (Rattus norvegicus [1]) [%] | IC50 (Oxytocin receptor) [nM] | IC50 (Vasopressin V1a receptor [6]) [nM] | also measured
Cc1ccn(-c2ccc(C(=O)N3Cc4cccn4Cc4ccccc43)c(Cl)c2)n1 | -82 | 353 |  | 
Cc1ccn(-c2ccc(C(=O)N3CC4=CCC(=O)N4Cc4ccccc43)c(Cl)c2)n1 | 0 |  |  | inhibition (Vasopressin V1a receptor [2]): -3%; inhibition [3]: 9%; inhibition (Vasopressin V2 receptor [4]): 40%
O=C(O)c1ccn(-c2ccc(C(=O)N3Cc4cccn4Cc4ccccc43)c(Cl)c2)n1 | 0 |  |  | 
Cc1ccc(F)cc1C(=O)Nc1ccc(C(=O)N2CC3C=CC(=O)N3Cc3ccccc32)c(Cl)c1 (stereo not drawn) | -26 | > 1000 | > 1000 | IC50 (Vasopressin V2 receptor [5]): 34 nM
Cc1ccc(F)cc1C(=O)Nc1ccc(C(=O)Nc2ccccc2C(=O)O)c(Cl)c1 |  | > 1000 | > 1000 | IC50 (Vasopressin V2 receptor [5]): > 1000 nM; Activity (Rattus norvegicus [7]): -6%
Cc1ccc(F)cc1C(=O)Nc1ccc(C(=O)N2Cc3cccn3Cc3ccccc32)c(Cl)c1 [LIXIVAPTAN] | 740 | 519 | 124 | 
Cc1ccn(-c2ccc(C(=O)N3C=C4CCC(=O)N4Cc4ccccc43)c(Cl)c2)n1 | 0 |  |  | inhibition (Vasopressin V1a receptor [2]): 4%; IC50 (Vasopressin V2 receptor [8]): 1210 nM
O=C(c1ccc(-n2ccc(CO)n2)cc1Cl)N1Cc2cccn2Cc2ccccc21 | -82 |  |  | 
Cc1ccn(-c2ccc(C(=O)Nc3ccccc3C(=O)O)c(Cl)c2)n1 |  |  |  | inhibition (Vasopressin V1a receptor [2]): -7%; inhibition (Vasopressin V2 receptor [4]): 3%
Cc1ccc(F)cc1C(=O)Nc1ccc(C(=O)N2CC3=CCC(=O)N3Cc3ccccc32)c(Cl)c1 | 131 |  |  | 
Cc1ccc(F)cc1C(=O)Nc1ccc(C(=O)N2C=C3CCC(=O)N3Cc3ccccc32)c(Cl)c1 | 133 | > 1000 | > 1000 | IC50 (Vasopressin V2 receptor [5]): 11 nM
Cc1ccn(-c2ccc(C(=O)Nc3ccccc3Cn3cccc3C(=O)O)c(Cl)c2)n1 |  |  |  | inhibition [3]: -10%; inhibition (Vasopressin V2 receptor [4]): 1%
Cc1ccc(F)cc1C(=O)Nc1ccc(C(=O)N2C=C3C(O)CC(=O)N3Cc3ccccc32)c(Cl)c1 (stereo not drawn) | 102 |  |  | 
Cc1ccn(-c2ccc(C(=O)N3CC4C=CC(=O)N4Cc4ccccc43)c(Cl)c2)n1 (stereo not drawn) | 16 |  |  | inhibition (Vasopressin V1a receptor [2]): -8%; inhibition [3]: -4%; inhibition (Vasopressin V2 receptor [4]): 16%
Cc1ccc(F)cc1C(=O)Nc1ccc(C(=O)Nc2ccccc2Cn2cccc2C(=O)O)c(Cl)c1 |  | > 1000 | > 1000 | IC50 (Vasopressin V2 receptor [5]): > 1000 nM; Activity (Rattus norvegicus [7]): 6.9%
Cc1ccc(F)cc1C(=O)Nc1ccc(C(=O)Nc2ccccc2Cn2cccc2C=O)c(Cl)c1 |  |  |  | inhibition (Vasopressin V1a receptor [9]): -6%; inhibition (Vasopressin V2 receptor [10]): 3%; inhibition [11]: 12%
